# Measurements as given in ChEMBL document CHEMBL5257125, “Discovery of pyrido[4,3-d]pyrimidinone derivatives as novel Wee1 inhibitors” (Bioorg Med Chem, 2023).
# Assays:
# [1] = target: T1, Wee1-like protein kinase (Homo sapiens, UniProt P30291); test: Inhibition of recombinant human Wee1 (214 to end residues) incubated for 1 hr in presence of tracer 178 by fluorescence based assay
# Target sequence in this assay (P30291 whole entry): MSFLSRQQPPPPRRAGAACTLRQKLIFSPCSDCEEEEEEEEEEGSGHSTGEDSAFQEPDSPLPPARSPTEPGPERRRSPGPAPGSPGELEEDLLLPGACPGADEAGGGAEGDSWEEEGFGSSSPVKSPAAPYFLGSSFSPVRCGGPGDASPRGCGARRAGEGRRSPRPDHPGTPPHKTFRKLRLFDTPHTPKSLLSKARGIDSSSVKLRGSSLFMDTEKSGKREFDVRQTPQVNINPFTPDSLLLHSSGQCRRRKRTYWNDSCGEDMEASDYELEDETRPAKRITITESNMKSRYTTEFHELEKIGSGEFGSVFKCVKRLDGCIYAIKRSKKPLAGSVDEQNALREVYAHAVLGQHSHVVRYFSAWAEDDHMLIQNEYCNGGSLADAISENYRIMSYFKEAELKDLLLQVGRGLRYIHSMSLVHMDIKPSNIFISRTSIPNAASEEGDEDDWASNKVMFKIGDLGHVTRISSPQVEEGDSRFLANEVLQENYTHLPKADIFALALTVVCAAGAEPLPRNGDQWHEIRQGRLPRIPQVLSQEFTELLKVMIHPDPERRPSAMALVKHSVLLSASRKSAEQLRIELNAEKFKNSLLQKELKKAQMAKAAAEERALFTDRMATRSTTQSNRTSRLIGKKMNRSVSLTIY
# [2] = system: MV4-11; test: Induction of DNA damage in human MV4-11 cells assessed as increase in gamma-H2AX expression incubated for 24 hrs by Western blot analysis; assay type: functional, cell-based; settings: dose 0.05-0.2 µM
# [3] = system: MV4-11; test: Induction of apoptosis in human MV4-11 cells assessed as late apoptotic cells at 400 nM after 48 hrs by Annexin V FITC/PI staining based flow cytometry analysis (reference value: 4.07%); assay type: functional
# [4] = system: MV4-11; test: Induction of apoptosis in human MV4-11 cells assessed as early apoptotic cells at 400 nM after 48 hrs by Annexin V FITC/PI staining based flow cytometry analysis (reference value: 9.33%); assay type: functional
# [5] = system: MV4-11; test: Induction of apoptosis in human MV4-11 cells assessed as viable cells at 1600 nM after 48 hrs by Annexin V FITC/PI staining based flow cytometry analysis (reference value: 86.6%); assay type: functional; settings: read-out: Activity
# [6] = system: MV4-11; test: Induction of apoptosis in human MV4-11 cells assessed as viable cells at 400 nM after 48 hrs by Annexin V FITC/PI staining based flow cytometry analysis (reference value: 86.6%); assay type: functional; settings: read-out: Activity
# [7] = system: MV4-11; test: Induction of apoptosis in human MV4-11 cells assessed as viable cells at 800 nM after 48 hrs by Annexin V FITC/PI staining based flow cytometry analysis (reference value: 86.6%); assay type: functional; settings: read-out: Activity
# [8] = system: MV4-11; test: Induction of apoptosis in human MV4-11 cells assessed as necrotic cells at 200 nM after 48 hrs by Annexin V FITC/PI staining based flow cytometry analysis (reference value: 0.00968%); assay type: functional
# [9] = system: MV4-11; test: Induction of apoptosis in human MV4-11 cells assessed as necrotic cells at 1600 nM after 48 hrs by Annexin V FITC/PI staining based flow cytometry analysis (reference value: 0.00968%); assay type: functional
# [10] = system: MV4-11; test: Induction of apoptosis in human MV4-11 cells assessed as necrotic cells at 400 nM after 48 hrs by Annexin V FITC/PI staining based flow cytometry analysis (reference value: 0.00968%); assay type: functional
# [11] = system: MV4-11; test: Induction of cell cycle arrest in human MV4-11 cells assessed as accumulation of cells at G0/G1 phase at 800 nM incubated for 24 hrs by flow cytometry analysis; assay type: functional
# [12] = target: T1, Wee1-like protein kinase; test: Inhibition of Wee1 in human MV4-11 cells assessed as reduction in phosphorylation of CDK1-Y15 incubated for 24 hrs by Western blot analysis; assay type: cell-based; settings: dose 0.01-5 µM
# Target sequence in this assay (P30291 whole entry, looked up): as the sequence (P30291 whole entry) above
# [13] = system: MV4-11; test: Induction of apoptosis in human MV4-11 cells assessed as necrotic cells at 3200 nM after 48 hrs by Annexin V FITC/PI staining based flow cytometry analysis (reference value: 0.00968%); assay type: functional
# [14] = system: MV4-11; test: Induction of apoptosis in human MV4-11 cells assessed as early apoptotic cells at 800 nM after 48 hrs by Annexin V FITC/PI staining based flow cytometry analysis (reference value: 9.33%); assay type: functional
# [15] = system: MV4-11; test: Antiproliferative activity against human MV4-11 cells incubated for 72 hrs by Celltiter-glo assay; assay type: functional, cell-based; settings: MV4-11, 72 h
# [16] = system: MV4-11; test: Induction of apoptosis in human MV4-11 cells assessed as necrotic cells at 800 nM after 48 hrs by Annexin V FITC/PI staining based flow cytometry analysis (reference value: 0.00968%); assay type: functional
# [17] = system: MV4-11; test: Induction of apoptosis in human MV4-11 cells assessed as early apoptotic cells at 1600 nM after 48 hrs by Annexin V FITC/PI staining based flow cytometry analysis (reference value: 9.33%); assay type: functional
# [18] = Metabolic stability in mouse liver microsomes assessed as parent compound remaining preincubated with NADPH for 5 mins followed by compound addition and measured upto 90 mins by LC-MS/MS analysis; assay type: ADME, Microsome; settings: read-out: Stability
# [19] = system: MV4-11; test: Induction of apoptosis in human MV4-11 cells assessed as late apoptotic cells at 200 nM after 48 hrs by Annexin V FITC/PI staining based flow cytometry analysis (reference value: 4.07%); assay type: functional
# [20] = system: MV4-11; test: Induction of apoptosis in human MV4-11 cells assessed as early apoptotic cells at 3200 nM after 48 hrs by Annexin V FITC/PI staining based flow cytometry analysis (reference value: 9.33%); assay type: functional
# [21] = system: MV4-11; test: Induction of apoptosis in human MV4-11 cells assessed as viable cells at 3200 nM after 48 hrs by Annexin V FITC/PI staining based flow cytometry analysis (reference value: 86.6%); assay type: functional; settings: read-out: Activity
# [22] = system: MV4-11; test: Induction of apoptosis in human MV4-11 cells assessed as early apoptotic cells at 200 nM after 48 hrs by Annexin V FITC/PI staining based flow cytometry analysis (reference value: 9.33%); assay type: functional
# [23] = system: MV4-11; test: Induction of apoptosis in human MV4-11 cells assessed as viable cells at 200 nM after 48 hrs by Annexin V FITC/PI staining based flow cytometry analysis (reference value: 86.6%); assay type: functional; settings: read-out: Activity
# [24] = system: MV4-11; test: Induction of apoptosis in human MV4-11 cells assessed as late apoptotic cells at 1600 nM after 48 hrs by Annexin V FITC/PI staining based flow cytometry analysis (reference value: 4.07%); assay type: functional
# [25] = system: T47D; test: Antiproliferative activity against human T47D cells incubated for 72 hrs by Celltiter-glo assay; assay type: functional, cell-based
# [26] = system: MV4-11; test: Induction of apoptosis in human MV4-11 cells assessed as late apoptotic cells at 800 nM after 48 hrs by Annexin V FITC/PI staining based flow cytometry analysis (reference value: 4.07%); assay type: functional
# [27] = system: MV4-11; test: Induction of apoptosis in human MV4-11 cells assessed as late apoptotic cells at 3200 nM after 48 hrs by Annexin V FITC/PI staining based flow cytometry analysis (reference value: 4.07%); assay type: functional
structure (smiles),measurement,setting,value
CN(C)CCCN(C)c1ccc(Nc2cc3ncn(-c4c(Cl)cccc4Cl)c(=O)c3cn2)cc1,IC50,[1],142 nM
Cc1cccc(Cl)c1-n1cnc2cc(Nc3ccc(N4CCN(C)CC4)cc3)ncc2c1=O,IC50,[1],78 nM
CN1CCN(c2ccc(Nc3cc4ncn(-c5ccccc5F)c(=O)c4cn3)cc2)CC1,IC50,[1],1480 nM
CN1CCN(c2ccc(Nc3cc4ncn(-c5c(F)cccc5Cl)c(=O)c4cn3)cc2)CC1,IC50,[1],268 nM
CC(=O)Nc1cc(Nc2cc3ncn(-c4c(Cl)cccc4Cl)c(=O)c3cn2)ccc1N1C[C@@H](C)N[C@@H](C)C1,Activity,[2],Dose-Dependent Effect
same,Activity,[3],5.09%
same,IC50,[1],21 nM
same,Activity,[4],10.4%
same,viability at 1.6 µM,[5],82.4%
same,viability at 0.4 µM,[6],84.5%
same,viability at 0.8 µM,[7],81.7%
same,Activity,[8],0.00954%
same,Activity,[9],0.048%
same,Activity,[10],0.02%
same,Activity,[11],63%
same,inhibition,[12],Dose-Dependent Effect
same,Activity,[13],0.01%
same,Activity,[14],12.2%
same,IC50,[15],763 nM
same,Activity,[16],0.029%
same,Activity,[17],12.4%
same,remaining at 1.5 h,[18],60%
same,Activity,[19],3.34%
same,Activity,[20],21.3%
same,viability at 3.2 µM,[21],66.7%
same,Activity,[22],12%
same,viability at 0.2 µM,[23],84.7%
same,Activity,[24],5.11%
same,IC50,[25],4640 nM
same,Activity,[26],0.12%
same,Activity,[27],12%
N[C@H]1CCCN(c2ccc(Nc3cc4ncn(-c5c(Cl)cccc5Cl)c(=O)c4cn3)cc2)C1,IC50,[1],41 nM
same,IC50,[15],1460 nM
same,IC50,[25],4680 nM
C[C@@H]1CN(c2ccc(Nc3cc4ncn(-c5c(Cl)cccc5Cl)c(=O)c4cn3)cc2C#N)C[C@H](C)N1,IC50,[1],163 nM
C[C@@H]1CN(c2ccc(Nc3cc4ncn(-c5c(Cl)cccc5Cl)c(=O)c4cn3)cc2C(F)(F)F)C[C@H](C)N1,IC50,[1],192 nM
CN1CCN(Cc2ccc(Nc3cc4ncn(-c5c(Cl)cccc5Cl)c(=O)c4cn3)cc2)CC1,IC50,[1],124 nM
O=c1c2cnc(Nc3ccc(NC4CCNCC4)cc3)cc2ncn1-c1c(Cl)cccc1Cl,IC50,[1],77 nM
same,IC50,[15],2470 nM
same,IC50,[25],> 20000 nM
CN1CCN(c2ccc(Nc3cc4ncn(-c5c(Cl)cccc5Cl)c(=O)c4cn3)cc2)CC1,IC50,[1],47 nM
same,IC50,[15],1330 nM
same,IC50,[25],14400 nM
CC(C)N1CCN(c2ccc(Nc3cc4ncn(-c5c(Cl)cccc5Cl)c(=O)c4cn3)cc2)CC1,IC50,[1],38 nM
CN(C)C1CCN(c2ccc(Nc3cc4ncn(-c5c(Cl)cccc5Cl)c(=O)c4cn3)cc2)CC1,IC50,[1],73 nM
C[C@@H]1CN(c2ccc(Nc3cc4ncn(-c5c(Cl)cccc5Cl)c(=O)c4cn3)cc2CNC2CC2)C[C@H](C)N1,IC50,[1],107 nM
CN(CCCN)c1ccc(Nc2cc3ncn(-c4c(Cl)cccc4Cl)c(=O)c3cn2)cc1,IC50,[1],90 nM
NC1CCN(c2ccc(Nc3cc4ncn(-c5c(Cl)cccc5Cl)c(=O)c4cn3)cc2)CC1,IC50,[1],65 nM
same,IC50,[15],2690 nM
same,IC50,[25],18800 nM
COc1cc(Nc2cc3ncn(-c4c(Cl)cccc4Cl)c(=O)c3cn2)ccc1N1C[C@@H](C)N[C@@H](C)C1,IC50,[1],52 nM
CCN1CCN(c2ccc(Nc3cc4ncn(-c5c(Cl)cccc5Cl)c(=O)c4cn3)cc2)CC1,IC50,[1],85 nM
C[C@@H]1CN(c2ccc(Nc3cc4ncn(-c5c(Cl)cccc5Cl)c(=O)c4cn3)nc2)C[C@H](C)N1,IC50,[1],23 nM
same,IC50,[15],1160 nM
same,IC50,[25],2670 nM
O=c1c2cnc(Nc3ccc(N4CCN(CCO)CC4)cc3)cc2ncn1-c1c(Cl)cccc1Cl,IC50,[1],43 nM
same,IC50,[15],2050 nM
same,IC50,[25],13700 nM
N[C@@H]1CCCN(c2ccc(Nc3cc4ncn(-c5c(Cl)cccc5Cl)c(=O)c4cn3)cc2)C1,IC50,[1],36 nM
N[C@@H]1CCN(c2ccc(Nc3cc4ncn(-c5c(Cl)cccc5Cl)c(=O)c4cn3)cc2)C1,IC50,[1],58 nM
O=c1c2cnc(Nc3ccc(N4CCNCC4)cc3)cc2ncn1-c1c(Cl)cccc1Cl,IC50,[1],48 nM
same,IC50,[15],863 nM
same,remaining at 1.5 h,[18],> 50%
same,IC50,[25],4230 nM
C[C@@H]1CN(c2ccc(Nc3cc4ncn(-c5c(Cl)cccc5Cl)c(=O)c4cn3)cc2)C[C@H](C)N1,IC50,[1],19 nM
same,IC50,[15],2680 nM
same,IC50,[25],4130 nM
CN1CCC(Oc2ccc(Nc3cc4ncn(-c5c(Cl)cccc5Cl)c(=O)c4cn3)cc2)CC1,IC50,[1],93 nM
N[C@H]1CCN(c2ccc(Nc3cc4ncn(-c5c(Cl)cccc5Cl)c(=O)c4cn3)cc2)C1,IC50,[1],40 nM
same,IC50,[15],1010 nM
same,IC50,[25],5030 nM
NCC1CCN(c2ccc(Nc3cc4ncn(-c5c(Cl)cccc5Cl)c(=O)c4cn3)cc2)CC1,IC50,[1],55 nM
CC(=O)N1CCN(c2ccc(Nc3cc4ncn(-c5c(Cl)cccc5Cl)c(=O)c4cn3)cc2)CC1,IC50,[1],294 nM
C[C@@H]1CN(c2ccc(Nc3cc4ncn(-c5c(Cl)cccc5Cl)c(=O)c4cn3)cc2CO)C[C@H](C)N1,IC50,[1],23 nM
same,IC50,[15],791 nM
same,remaining at 1.5 h,[18],> 50%
same,IC50,[25],3230 nM
O=c1c2cnc(Nc3ccc(C4CCNCC4)cc3)cc2ncn1-c1c(Cl)cccc1Cl,IC50,[1],78 nM
O=c1c2cnc(Nc3ccc(N[C@@H]4CN5CCC4CC5)cc3)cc2ncn1-c1c(Cl)cccc1Cl,IC50,[1],201 nM
O=c1c2cnc(Nc3ccc(N4CCC(CO)CC4)cc3)cc2ncn1-c1c(Cl)cccc1Cl,IC50,[1],515 nM
O=c1c2cnc(Nc3ccc(N4CCN(C5CC5)CC4)cc3)cc2ncn1-c1c(Cl)cccc1Cl,IC50,[1],97 nM
CN(C)CCOc1ccc(Nc2cc3ncn(-c4c(Cl)cccc4Cl)c(=O)c3cn2)cc1,IC50,[1],52 nM
same,IC50,[15],1220 nM
same,IC50,[25],10400 nM
O=c1c2cnc(Nc3ccc(N4CCC(O)CC4)cc3)cc2ncn1-c1c(Cl)cccc1Cl,IC50,[1],96 nM
CN(C)CCCNc1ccc(Nc2cc3ncn(-c4c(Cl)cccc4Cl)c(=O)c3cn2)cc1,IC50,[1],79 nM
same,IC50,[15],874 nM
same,remaining at 1.5 h,[18],22%
same,IC50,[25],14000 nM
C=CCn1c(=O)c2cnc(Nc3ccc(N4CCN(C)CC4)cc3)nc2n1-c1cccc(C(C)(C)O)n1 [ADAVOSERTIB],IC50,[15],95 nM
same,IC50,[25],12800 nM
CN(C)CCN(C)c1ccc(Nc2cc3ncn(-c4c(Cl)cccc4Cl)c(=O)c3cn2)cc1,IC50,[1],70 nM
same,IC50,[15],660 nM
same,remaining at 1.5 h,[18],60%
same,IC50,[25],9600 nM
CN1CCN(c2ccc(Nc3cc4ncn(-c5c(Cl)cccc5Cl)c(=O)c4cn3)nc2)CC1,IC50,[1],18 nM
same,IC50,[15],1070 nM
same,IC50,[25],6390 nM
CN1CCC(Nc2ccc(Nc3cc4ncn(-c5c(Cl)cccc5Cl)c(=O)c4cn3)cc2)CC1,IC50,[1],35 nM
same,IC50,[15],1760 nM
same,IC50,[25],19200 nM
